From US6083931A, “Method of inhibiting cancer metastasis” (NGK Insulators, Ltd., priority 1997, dated 2000) come the findings set out here.

Counter-ions that a name gives are not always drawn.

In series [1] the test system is AH66F cancer cells. The experiment in a line: Life-prolonging effect upon rats with AH66F cancer cells. The series is classed as in vivo, rat. The following applies: for Survival dates: peritoneally administered, control 7.3 ± 0.3; for Life-prolonging percentage: vs control group. The protocol: AH66F cancer cells (1×10^6 cells) were each peritoneally administered to Donryu male rats (six week age, 100-120 g, each group--6 rats). Immediately thereafter, a solution of sialic acid (dosage: 10 mg/kg and 100 mg/kg) or physiological saline solution was peritoneally administered in a dosage of 0.5 ml (control group). Then, after sialic acid or physiological saline solution was peritoneally administered over 2 days, survival dates of the rats were observed.
The life-prolonging percentage was calculated according to the following formula. Life-prolonging percentage=[(survival dates of treated group)-(survival dates of control group)/(survival dates of control group]×100

In series [2] the test system is AH66F cells adhering to M-cells. The experiment in a line: Inhibition of adhesion of AH66F cells to M-cells under coexistence of anti-LFA-1 antibody. The series is classed as cell-based, rat. The protocol: (§1) Mesentery cells (M-cells) originating from a rat was cultivated inside a cell-cultivating well plate with a Dulbecco's Modification of Eagle's Medium (DMEM) containing 5% fetal calf serum (FCS). When the cells spread over the entire face of the well, the cells were washed with DMEM containing no FC3. Further, the cells were cultivated with DMEM containing 10 μg/ml or 100 μg/ml of sialic acid at 37° C. After 45 minutes passed, the well was washed with DMEM, and rat AH66F cells ([…]) and sialic acid at a concentration shown in FIG. 1 were added together with DMEM. The mixture was cultivated at 37° C. for one hour. After the cultivation, the mixture was stirred for 30 second, and a cultivation supernatant liquid was taken into a sample tube. Into each well was added 200 μl of fresh DMEM, and washing was similarly carried out under stirring for 15 seconds. […] Then, the number of the cells was measured by a haemacytometer under a microscope (the number of non-adhered cells).
(§2) As a control, only cancer cells were cultivated, the same operations as mentioned above were effected, and the number of the cells were measured (the number of cells in control).
(§3) The adhesive rate (%) of the cancer cells was calculated according to the following calculating formula. […]

In series [3] the test system is rat AH66F cells adhering to mesentery cells (M-cells). As to the kind of experiment: Inhibition of adhesion of rat AH66F cancer cells to rat mesentery cells (M-cells). The series is classed as cell-based. The following applies: average over four wells.
Description: The present inventors employed, as a model system for the measurement of the metastasis-inhibiting action upon the cancer cells, a system in which rat ascites hepatoma as extremely malignant cancer cells were adhered to mesenteries of a rat. They also employed a cell system as a simpler technique. As the former cancer cells, AH66F-cells were used, whereas M-cells were used as the latter mesentery cells.
as §1, with “DMEM.” for “DMEM. The mixture was cultivated at 37° C. for one hour. After the cultivation, the mixture was stirred for 30 second, and a cultivation supernatant liquid was taken into a sample tube. Into each well was added 200 μl of fresh DMEM, and washing was similarly carried out under stirring for 15 seconds.”
as §2, §3

Series [4] in a line: Acute toxicity test, intravenous, male Wister-strain rats. The following applies: rat, in vivo, intravenous administration, sodium salts, pH 7.0.

For `CC(=O)N[C@H]1[C@H]([C@H](O)[C@H](O)CO)OC(O)(C(=O)O)C[C@@H]1O` (stereo partly drawn) [sialic acid, N-acetylneuraminic acid], the “life-prolonging effect, times that of control group” value was 1.6 times in series [1] (10 mg/Kg) and 1.8 times in series [1] (100 mg/Kg). Moreover, the Survival dates in series [1] (10 mg/Kg × 3 days) is 11.5 ± 0.4; in series [1] (100 mg/Kg × 3 days), 13.4 ± 0.4. Further, the figures for the Life-prolonging percentage in series [1] (10 mg/Kg × 3 days) and in series [1] (100 mg/Kg × 3 days) were 58% and 84%, respectively. Besides, the inhibition at 100 µg/mL is 7% in series [2] (Rattus norvegicus, 100 μg/ml sialic acid under coexistence of 10 μg/ml anti-LFA-1 antibody) and 31% in series [3] (100 μg/ml sialic acid). Besides, the “synergistic effect on adhesion inhibition (in words)” value in series [2] (sialic acid with anti-LFA-1 antibody) is “synergistic effect”. The same compound registered an inhibition at 10 µg/mL in series [3] (10 μg/ml sialic acid) of 27%.
In the case of `CC(=O)N[C@H]1[C@H]([C@H](O)[C@H](O)CO)OC(O)(C(=O)O)C[C@@H]1O` (stereo partly drawn) [sodium salts of sialic acid], in series [4], the median lethal dose (LD50) is at least 2000 mg/kg.
On the same count and under the same terms, under `CC(=O)NC1C(O)CC(OC(CO)C(O)C2OC(OC(CO)C(O)C3OC(O)(C(=O)O)CC(O)C3NC(C)=O)(C(=O)O)CC(O)C2NC(C)=O)(C(=O)O)OC1C(O)C(O)CO` (stereo not drawn) [trimer] stands at least 2000 mg/kg.

What is called inhibition is the share of the control response that was lost under treatment. Higher therefore signals strong suppression. For orientation: LD50 means the dose at which mortality reaches 50%.
